Reference: PubChem BioAssay AID720512 (Broad Institute, 2013)
Calls of active or inactive are those of the source. No rule for the calls is given here.

The compounds below were run against Toxin B (TcdB) glycohydrolase, Clostridioides difficile 630 (assay: TcdB glycohydrolase inhibitors, dose response, biochemical, cherry-pick, plate reader (AID 720512)). Settings: recombinant TcdB glycohydrolase activity.

SMILES	AC50
Cc1ccc(-n2c(SCC(=O)O)nc3c(sc(=S)n3-c3ccc(C)c(C)c3)c2=O)cc1	> 39 µM (inactive)
COC(=O)/C=C/C(=O)Nc1ccc(O)c(Cl)c1	20.9 µM
Oc1ccc(CCc2ccccn2)cc1	> 39 µM (inactive)
O=C1Nc2ccc(Br)cc2C1Cc1ccccc1F (configuration not stated)	> 39 µM (inactive)
COc1cc(/C=C/C(=O)OCC(=O)NC(=O)NC(C)(C)C)ccc1O	> 39 µM (inactive)
CC(=O)N(C)C[C@@H]1Oc2cc(/C=C/c3ccccc3)ccc2S(=O)(=O)N([C@H](C)CO)C[C@@H]1C	> 39 µM (inactive)
COc1cc2c(cc1O)CC[n+]1cc3c(OC)c(OC)ccc3cc1-2	> 39 µM (inactive)
Cc1cc(C(=O)NNc2ccc(C)c(C)c2)no1	2.24 µM
COC1=C/C(=C/c2c(N)n3nc(CC(=O)N4CCOCC4)sc3nc2=O)C=CC1=O	> 39 µM (inactive)

Same assay, conditions: recombinant TcdB glycohydrolase activity, at 19.5 µM (top of the series)

SMILES	activity change, negative = inhibition
C=CCN=c1scc(C)n1/N=C/c1ccc(O)c(O)c1	inactive
O=C(CSc1ccc2nnc(-c3ccc(F)cc3)n2n1)N1CCOCC1	inactive
O=C(Nc1sc2c(c1C(=O)O)CCCC2)c1ccc(Cl)cc1	inactive
CCC(=O)Nc1ccc2c(c1)OC[C@H](C)N(C(=O)NC(C)C)C[C@@H](C)[C@@H](OC)CN(C)C2=O	inactive
COC(=O)C(Cc1ccccc1)NC(=O)CSc1nc(C)cc(=O)[nH]1 (configuration not stated)	inactive
COc1cccc2cc(/C(C)=N/NC(=O)c3ccco3)oc12	inactive
CCCNC(=O)Nc1ccc2c(c1)C(=O)N(C)[C@@H]1CC[C@H](CC(=O)NC3CCC3)O[C@H]1CO2	inactive
CS(=O)(=O)N1CCc2cc(C(=O)Nc3ccc(O)cc3)ccc21	inactive
C[C@H]1CN([C@@H](C)CO)C(=O)c2c(c3ccccc3n2C)-c2ccccc2CO[C@H]1CN(C)C	inactive
COCCNc1cc(N)c([N+](=O)[O-])cc1[N+](=O)[O-]	inactive
COc1ccc(C2=NS(=O)(=O)N(C)C(C(=O)N3CCN(C)CC3)=C2)cc1	inactive
CCc1[nH]c(=O)c(C#N)c2c1CCCC2	inactive
CCOC(=O)c1nnn(-c2nonc2N)c1-c1ccc(F)cc1	inactive
CN1CCN(CC(=O)Nc2cc(N(C)C)nc3ccccc23)CC1	inactive
COc1ccc(C2=NS(=O)(=O)N(C)C(C(=O)NC(C)c3ccccc3)=C2)cc1 (configuration not stated)	inactive
O=C(Nc1ccc(O)cc1)c1ccc2c(c1)C(=O)N(Cc1ccco1)C2=O	inactive
COC(=O)Cc1ccc(NC(=S)NCc2ccc(OC)cc2)cc1	inactive
COC(=O)C[C@H]1CC[C@@H]2[C@@H](COc3ccc(NC(=O)c4cccc(OC)c4)cc3C(=O)N2C)O1	inactive
COc1cc(-c2noc(C)c2C#CC2(O)CCCCC2)cc(OC)c1OC	inactive
O=C(C[C@@H]1CC[C@H]2[C@@H](COC[C@H](O)CN2C(=O)c2ccccn2)O1)NC1CCC1	inactive
COc1ccc(C(=O)OCC(=O)Nc2ccc3[nH]c(=O)[nH]c3c2)c(OC)c1OC	inactive
O=P1(Oc2ccccc2)OCCCS1 (configuration not stated)	inactive
Nc1cc(N)cc(C(=O)OCC(=O)Nc2cc(S(=O)(=O)N3CCCCC3)ccc2Cl)c1	inactive
COc1cccc(C(=O)COC(=O)c2ccc(NC(=O)c3ccccc3)cc2)c1	inactive
COc1cc(/C=N/NC(=O)CCN2CCCCC2)ccc1O	inactive

SMILES	activity change, negative = inhibition
Clc1cccc(-c2ccc3ncnc(NCc4cccs4)c3c2)c1	inactive
CCN(CC)S(=O)(=O)c1cc(C(=O)Nc2cccnc2Cl)ccc1Cl	inactive
COCC#Cc1ccc2c(c1)O[C@H](CN(C)C(=O)CC1CC1)[C@@H](C)CN([C@H](C)CO)S2(=O)=O	inactive
COc1cc2[nH]c(=S)nc(NCCC(C)C)c2cc1OC	inactive
COc1ccc(C(NC(C)=O)c2cc(Cl)c3cccnc3c2O)cc1 (configuration not stated)	inactive
CC1CC(=O)N(c2ccc(NCCc3ccc(O)cc3)c([N+](=O)[O-])c2)C1=O (configuration not stated)	inactive
Cc1cc(N/N=C/c2ccc(O)cc2O)nc(N2CCOCC2)n1	inactive
Cc1cc(C)c(S(=O)(=O)N2CCCCC2C(=O)O)c(C)c1 (configuration not stated)	inactive
COCC(=O)N1CC[C@@H]2[C@@H](CO)N(C)c3ccc(-c4ccccc4)cc3[C@@H]21	inactive
COC(=O)C[C@@H]1CC[C@@H]2[C@H](COC[C@H](O)CN2C(=O)Nc2ccccc2OC)O1	inactive
O=C(NCCc1ccc(Cl)cc1)C1CCN(S(=O)(=O)c2ccc(Br)s2)CC1	inactive
COc1ccc(C(=O)Nc2ccc3c(c2)C(=O)N(C)[C@@H]2CC[C@H](CC(=O)NCC4CC4)O[C@H]2CO3)cc1	inactive
CCOc1ccc(C(CC(=O)O)NC(=O)C23CC4CC(CC(C4)C2)C3)cc1OC (configuration not stated)	inactive
Cc1cc(C)c(S(=O)(=O)c2ccc(Cl)cc2C)c(Cl)n1	inactive
COC(=O)CN1C(C)=Nc2ccc(Br)cc2C1c1ccccc1 (configuration not stated)	inactive
O=C(C[C@H]1C[C@H]2c3cc(NC(=O)c4ccc5c(c4)OCO5)ccc3O[C@H]2[C@@H](CO)O1)NCc1cccc(F)c1	inactive
CC(=O)Nc1ccc(NC(=O)CN2CCN(c3ccccn3)CC2)cc1	inactive
COc1cc(OC)c(OC)cc1/C=C/c1ccnc2ccccc12	inactive
CCOc1ccccc1/C=C/c1onc(C)c1S(=O)(=O)N1CCC(C(=O)NC(C)(C)C)CC1	inactive
COc1ccc(/C=C/c2nc3ccccc3n2C)cc1	inactive
COc1cc(/C=C(\C#N)C(=O)Nc2ccc3c(c2)OCCO3)ccc1O	inactive
O=C(O)c1c(C(=O)O)c(-c2ccc(Br)cc2)n2c1CSC2	inactive
CC(C)(C)N1[C@@H](CC(=O)O)c2cc(C(F)(F)F)ccc2S1(=O)=O	inactive
Cc1ccc(/C=N/NC(=O)c2cccc(S(=O)(=O)Nc3ccccc3Cl)c2)o1	inactive
CCCCNS(=O)(=O)c1ccc(OCC(=O)OC)cc1	inactive

SMILES	activity change, negative = inhibition
COc1ccc(Cl)cc1NC(=O)Cn1c(NCCO)nc2ccccc21	inactive
CN1C(=O)C(c2nnc(Nc3cccc4ccccc34)s2)C2CC1(C)Oc1ccccc12 (configuration not stated)	inactive
Nc1ccc2c(c1)Nc1ccccc1CC2	inactive
CNC(=O)C[C@H]1CC[C@@H]2[C@@H](COc3ccc(NC(=O)c4ccc(OC)cc4)cc3C(=O)N2C)O1	inactive
Cc1ccc(C2=NS(=O)(=O)N(C)C(C(=O)NC(C)c3ccccc3)=C2)cc1 (configuration not stated)	inactive
COC(=O)Cc1ccc(NC(=S)NCc2ccco2)cc1	inactive
COCC(=O)N1CC[C@@H]2[C@H]1c1cc(-c3ccc(F)cc3)ccc1N(C)[C@H]2CO	inactive
NNC(=O)CNC(=O)Nc1n[nH]c(=S)s1	inactive
Cc1cc(=O)oc2c(N)c(O)ccc12	inactive
Cc1ccnc(N2C(=O)c3ccccc3C2=O)c1	inactive
Cc1ccc(NNC(=O)c2ccno2)c(C)c1	inactive
Cc1ccn2c(Cc3ccccc3)c(-c3ccc(F)cc3)nc2c1	inactive
CC(=O)Nc1cccc(NC(=O)c2ccc(Br)cc2)c1	inactive
Cc1cc(C)cc(N=C2NC(=O)CS2)c1	inactive
Cc1cc(C)nc(SCC(=O)c2ccc(O)c(O)c2)n1	inactive
COc1ccc(OCc2cc(-c3ccc(Cl)cc3)no2)cc1	inactive
COC(=O)c1sc2nc(SCc3ccccc3C)n(N)c(=O)c2c1C	inactive
COc1ccc(NC(=O)CSc2nccn2C)cc1S(N)(=O)=O	inactive
COC(=O)C1=C(c2ccc(F)cc2OCc2ccccc2)C[C@@H]2CC[C@H]1N2C(=O)NCCOc1ccccc1	inactive
CC[C@H](C)[C@H]1CNC(=S)N1CC1CCN(CCCC2CCCC2)CC1	inactive
Cc1[nH]c(=O)c(C#N)c2c1CCCC2	inactive
Cn1ncc(Cl)c1C(=O)N/N=C/c1cccc(OC2CSC2)c1	inactive
O=C(Cc1ccccn1)c1ccncc1	inactive
